Ki data for 24 molecules are collected here from patent publication US8609681B2, “Spirocyclic nitriles as protease inhibitors” (Sanofi, priority 2006, dated 2013).

Holding throughout (type): biochemical
Common to all, as to settings: Ki from IC50 by Cheng-Prusoff equation

Assay [1] concerns the target catalytic domain of human Cathepsin K (Homo sapiens (Human), UniProt P43235). Nature of the assay: Enzymatic activity of the catalytic domain of human Cathepsin K (fluorogenic substrate Boc-Ala-Gly-Pro-Arg-AMC). As for the experimental part:
(§1) The enzyme is activated as follows:
1 part by volume of enzyme is admixed with 4 parts by volume of cysteine solution and diluted with the acetate/Hepes buffer to a concentration of 0.22 μg/ml.
(§2) To measure the enzyme activity, 10 μl of enzyme solution are incubated with 10 μl of a 3% (v/v) aqueous dimethyl sulfoxide solution (reaction 1) for 10 minutes. To measure the enzyme inhibitor activity, 10 μl of enzyme solution are incubated with 10 μl of a 3% (v/v) aqueous dimethyl sulfoxide solution which contains the enzyme inhibitor (reaction 2).
(§3) Both in reaction 1 and in reaction 2, after addition of 10 μl of a 3% (v/v) aqueous dimethyl sulfoxide solution which contains 0.3 mmol/l of the substrate, the enzyme reaction is monitored by fluorescence spectroscopy (360 nm (excitation)/465 nm (emission)).
(§4) The enzyme activity is shown as fluorescence increase/minute.
(§5) The inhibitor action is calculated as the percentage inhibition by the following formula: % inhibition=100−[(fluorescence increase/minute in reaction 2)/(fluorescence increase/minute in reaction 1)×100].
(§6) The IC50, which is the inhibitor concentration required for a 50% inhibition in the enzyme activity, is determined graphically by plotting the percentage inhibitions at different inhibitor concentrations.
(§7) The cysteine solution contains 0.3 mol/l of cysteine in water. The acetate/Hepes buffer contains 0.15 mol/l of sodium acetate, 0.15 mol/l of Hepes, 0.3 mol/l of sodium chloride and 0.001% Pluronic (Sigma, Deisenhofen, Germany) pH 6.5.
The enzyme solution contains 0.22 μg/ml of the enzyme domain.
The substrate solution contains 0.3 mmol/l of the fluorogenic substrate Boc-Ala-Gly-Pro-Arg-AMC (Bachem, Heidelberg, Germany).
(§8) Corresponding Ki values are obtained by applying the Cheng-Prusoff equation: Ki=Ki,app/(1+[S]/KM); where Ki,app=IC50
(§9) (Ki,app is the concentration of the competing substance which leads to 50% inhibition of the enzymatic activity at a substrate concentration [S])

For assay [2], the target named is catalytic domain of human Cathepsin B (Homo sapiens (Human), UniProt P07858). The assay is described as follows: Enzymatic activity of the catalytic domain of human Cathepsin B (fluorogenic substrate Z-Arg-Arg-AMC). As for the experimental part:
as §1
25 μg of enzyme are diluted with acetate buffer to a concentration of 12.5 μg/ml. 1 part by volume of enzyme is admixed with 20 parts by volume of cysteine solution and diluted with the acetate/Hepes buffer to a concentration of 0.11 μg/ml and incubated at 37° C. for 5 minutes.
as §2, §3, §4
The inhibitor action is calculated as the percentage inhibition by the following formula: inhibition=100−[(fluorescence increase/minute in reaction 2)/(fluorescence increase/minute in reaction 1)×100].
as §6
The acetate buffer contains 0.1 mol/l of sodium acetate, 0.1 mol/l of sodium chloride and 0.001% Pluronic (Sigma, Deisenhofen, Germany) pH 4.5.
as §7
The enzyme solution contains 0.11 μg/ml of the enzyme domain.
The substrate solution contains 0.3 mmol/l of the fluorogenic substrate […] (Bachem, Heidelberg, Germany).
as §8, §9

The target in assay [3] is catalytic domain of human Cathepsin S (Homo sapiens (Human), UniProt P25774). Nature of the assay: Enzymatic activity of the catalytic domain of human Cathepsin S (fluorogenic substrate Z-Val-Val-Arg-AMC). As for the experimental part:
as §1
5 parts by volume of enzyme are incubated with 20 parts by volume of acetate buffer and 50 parts by volume of cysteine solution at 37° C. for 5 minutes. After the activation of the enzyme, it is diluted with the Tris/HCl buffer to a concentration of 0.65 μg/ml. To measure the enzyme activity, 10 μl of enzyme solution are incubated with 10 μl of a 3% (v/v) aqueous dimethyl sulfoxide solution (reaction 1) for 10 minutes. To measure the enzyme inhibitor activity, 10 μl of enzyme solution are incubated with 10 μl of a 3% (v/v) aqueous dimethyl sulfoxide solution which contains the enzyme inhibitor (reaction 2). Both in reaction 1 and in reaction 2, after addition of 10 μl of a 1.5% (v/v) aqueous dimethyl sulfoxide solution which contains 0.15 mmol/l of the substrate, the enzyme reaction is monitored by fluorescence spectroscopy (360 nm (excitation)/465 nm (emission)).
as §4, §5, §6
The acetate buffer contains 0.05 mol/l of sodium acetate, 0.1 mol/l of sodium chloride and 0.001% Pluronic (Sigma, Deisenhofen, Germany) pH 5.5.
The cysteine solution contains 0.3 mol/l of cysteine in water. The Tris/HCl buffer contains 0.1 mol/l of Tris/HCl, 0.04 mol/l of EDTA and 0.001% Pluronic pH=7.5. The enzyme solution contains 0.65 μg/ml of the enzyme domain.
The substrate solution contains 0.15 mmol/l of the fluorogenic substrate Z-Val-Val-Arg-AMC (Bachem, Heidelberg, Germany).
as §8, §9

catalytic domain of human Cathepsin K, sequence (P43235 115-329): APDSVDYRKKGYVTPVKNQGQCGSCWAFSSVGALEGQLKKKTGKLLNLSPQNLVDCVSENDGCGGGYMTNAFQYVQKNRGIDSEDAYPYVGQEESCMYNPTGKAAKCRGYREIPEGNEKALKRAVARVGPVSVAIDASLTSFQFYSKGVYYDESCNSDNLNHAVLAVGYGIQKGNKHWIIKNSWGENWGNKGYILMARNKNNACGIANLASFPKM
catalytic domain of human Cathepsin S, sequence (P25774 115-331): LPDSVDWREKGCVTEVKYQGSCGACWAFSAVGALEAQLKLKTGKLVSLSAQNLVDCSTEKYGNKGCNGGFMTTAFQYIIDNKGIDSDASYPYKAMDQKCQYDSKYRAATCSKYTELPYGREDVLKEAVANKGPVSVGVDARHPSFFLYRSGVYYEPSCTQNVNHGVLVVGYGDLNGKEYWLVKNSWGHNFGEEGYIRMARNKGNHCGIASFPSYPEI

The term Ki denotes the equilibrium dissociation constant of an inhibitor or competing ligand from its target. `CC(F)(F)C[C@H](NC(=O)N1CCC2(CCCCC2)CC1)C(=O)NC1(C#N)CC1` [Example 9, N—[(S)-1-(1-cyanocyclopropylcarbamoyl)-3,3-difluorobutyl]-3-azaspiro[5.5]undecane-3-carboxamide]: the Ki in assay [1] was 1.8 nM; in assay [2], 46 nM; in assay [3], 3.2 nM.

Consider `CC(C)C[C@H](NC(=O)C1CCC2(CC1)OCCO2)C(=O)NC1(C#N)CC1` [Example 35, N—[(S)-1-(1-cyanocyclopropylcarbamoyl)-3-methylbutyl]-1,4-dioxaspiro[4.5]decane-8-carboxamide], for which the figures for the Ki in assay [1], in assay [2] and in assay [3] were 31 nM, above 7100 nM and 150 nM, respectively.

Regarding `CC(F)(F)C[C@H](NC(=O)N1CCC2(CCCC2)CC1)C(=O)NC1(C#N)CC1` [Example 36], the Ki in assay [1] came to 3 nM; in assay [2], 44 nM; in assay [3], 2 nM.

As for `CC(F)(F)C[C@H](NC(=O)N1CCC2(CC1)OCCO2)C(=O)NC1(C#N)CC1` [Example 37], the results for the inhibition constant Ki in assay [1], in assay [2] and in assay [3] were 21 nM, 560 nM and 13 nM, respectively.

Regarding `CC(F)(F)C[C@H](NC(=O)N1CCC2(CC1)C(=O)NCN2c1ccccc1)C(=O)NC1(C#N)CC1` [Example 42], the Ki in assay [1] worked out at 32 nM; in assay [2], 4500 nM; in assay [3], 11 nM.

As for `CC(F)(F)C[C@H](NC(=O)N1CCC2(CC1)NCC(C)(C)CO2)C(=O)NC1(C#N)CC1` [Example 45], the Ki is 21 nM in assay [1], 1200 nM in assay [2] and 24 nM in assay [3].

For the molecule `CC(F)(F)C[C@H](NC(=O)N1CCC2(CC1)CCN(Cc1ccccc1)C2=O)C(=O)NC1(C#N)CC1` [Example 49], the Ki in assay [1] amounted to 52 nM; in assay [2] it was 2200 nM; in assay [3] it was 16 nM.

As for `N#CC1(NC(=O)C2(NC(=O)N3CCC4(CCCC4)CC3)CCCCC2)CC1` [Example 53], the inhibitory constant (Ki) in assay [1] turned out to be 4.5 nM; in assay [2], 1500 nM; in assay [3] it was 53 nM.

In the case of `CC(F)(F)C[C@H](NC(=O)N1CCC2(CC1)CCN(C1CC1)CC2)C(=O)NC1(C#N)CC1` [Example 56], the Ki in assay [1] amounted to 7.5 nM; in assay [2], 210 nM; in assay [3] it was 7.2 nM.

In the case of `CC(F)(F)C[C@H](NC(=O)N1CCC2(CC1)CC2)C(=O)NC1(C#N)CC1` [Example 63, N—[(S)-1-(1-cyanocyclopropylcarbamoyl)-3,3-difluorobutyl]-6-azaspiro[2.5]octane-6-carboxamide], the Ki in assay [1] worked out at 22 nM; in assay [2], 260 nM; in assay [3] it was 5 nM.

With `N#CC1(NC(=O)[C@H](CC(F)(F)Cc2ccccc2)NC(=O)N2CCC3(CC2)CC3)CC1` [Example 70, N—[(S)-1-(1-cyanocyclopropylcarbamoyl)-3,3-difluoro-4-phenylbutyl]-6-azaspiro[2.5]octane-6-carboxamide], the Ki in assay [1] is 910 nM; in assay [2], 110 nM; in assay [3] it was 0.3 nM.

`CC(F)(F)C[C@H](NS(=O)(=O)N1CCC2(CCCC2)CC1)C(=O)NC1(C#N)CC1` [Example 74, N-(1-Cyanocyclopropyl)-(S)-2-(8-azaspiro[4.5]decane-8-sulfonylamino)-4,4-difluoropentamide]: the Ki was 150 nM in assay [1], above 7100 nM in assay [2] and 16 nM in assay [3].

Turning to `CC(F)(F)C[C@H](NC(=O)N1CCC2(CC1)CCC(C)(C)O2)C(=O)NC1(C#N)CC1` [Example 76], the Ki in assay [1] is 47 nM; in assay [2], 930 nM; in assay [3], 22 nM.

Regarding `CC(F)(F)C[C@H](NC(=O)N1CCC2(CCCCC2)C1)C(=O)NC1(C#N)CC1` [Example 77], the Ki is 20 nM in assay [1], 220 nM in assay [2] and 7 nM in assay [3].

For the molecule `CC(F)(F)C[C@H](NC(=O)N1CCC2(CC1)OCc1ccccc12)C(=O)NC1(C#N)CC1` [Example 78], the Ki in assay [1] was 38 nM; in assay [2], 530 nM; in assay [3], 19 nM.

`CC(F)(F)C[C@H](NC(=O)N1CCC2(CCCc3ccccc32)C1)C(=O)NC1(C#N)CC1` (stereo partly drawn) [Example 79]: the Ki in assay [1] is 16 nM; in assay [2] it was 620 nM; in assay [3] it was 9 nM.

For the molecule `CC(F)(F)C[C@H](NC(=O)N1CCOC12CCCCC2)C(=O)NC1(C#N)CC1` [Example 80], the Ki in assay [1] was 36 nM; in assay [2], 3900 nM; in assay [3], 9 nM.

For `CC(F)(F)C[C@H](NC(=O)N1CC2(CCN(C3CC3)CC2)C1)C(=O)NC1(C#N)CC1` [Example 83], the Ki in assay [1] was found to be 28 nM; in assay [2], 2300 nM; in assay [3], 8 nM.

Regarding `CC(F)(F)C[C@H](NC(=O)N1CCC2(CC1)CC(=O)N(CC1CC1)C2)C(=O)NC1(C#N)CC1` [Example 88], the results for the Ki in assay [1], in assay [2] and in assay [3] were 15 nM, 310 nM and 9 nM, respectively.

Consider `CCCC(F)(F)C[C@H](NC(=O)N1CCC2(CC1)CCN(c1ccc(OC)cc1)C2)C(=O)NC1(C#N)CC1` [Example 91], for which the Ki in assay [1] came out at 43 nM; in assay [2] it was 140 nM; in assay [3] it was 2 nM.

As to `CCCC(F)(F)C[C@H](NC(=O)N1CCC2(CC1)CCN(C1CC1)CC2)C(=O)NC1(C#N)CC1` [Example 94], the Ki amounted to 24 nM in assay [1], 84 nM in assay [2] and 2 nM in assay [3].

Regarding `N#CC1(NC(=O)[C@H](CC(F)(F)Cc2ccccc2)NC(=O)N2CCC3(CC2)CCN(C2CC2)CC3)CC1` [Example 97], the figures for the Ki in assay [1], in assay [2] and in assay [3] were 400 nM, 100 nM and 1 nM, respectively.

Take `CCCC(F)(F)C[C@H](NC(=O)N1CCC2(CC1)CC2)C(=O)NC1(C#N)CC1` [Example 102]: the values for the Ki in assay [1], in assay [2] and in assay [3] were 33 nM, 62 nM and 0.5 nM, respectively.

As for `CN1CCC(C#N)(NC(=O)[C@H](CC(C)(F)F)NC(=O)N2CCC3(CC2)CC3)CC1` [Example 103], the inhibition constant Ki in assay [1] came to 84 nM; in assay [2] it was 99 nM; in assay [3], 27 nM.
